Data as given in patent US20250304551A1 (SHANGHAI APEIRON THERAPEUTICS COMPANY LIMITED, priority 2022, published 2025).

Tests used:
HT29 cells = assay: CyQuant cell proliferation activity test, HT29; assay type: cell-based; details: Homo sapiens, HT-29, 72 h, HT29 2000 cells per well, 3 days incubation, initial concentration 3000 nM, IC50 by XLFIT, read-out: HT-29 Cell Viability_IC50_nM
Procedure: Materials and Cells: HT29 cells were purchased from Nanjing Cobioer Biosciences Co., Ltd.; RPM-1640 medium, fetal bovine serum, Trypsin-EDTA (0.25%), DMSO, 96-well plates, and CyQuant reagents were purchased from ThermoFisher (USA).
Cell Culture: Culture HT29 cells with RPMI-1640 containing 10% fetal bovine serum under the condition of 37° C. and 5% CO2. Only cells in the logarithmic growth phase can be used for the test.
Cell Proliferation Activity Test: Use the CyQuant reagent to detect the proliferation inhibitory activity of compounds on HT29 cells. Adjust the cell density and inoculate 100 μL per well into the 96-well plate (HT29 at 2000 cells per well), then incubate overnight under the condition of 37° C. and […]. Add compounds of various target concentrations (initial concentration of 3000 nM, 3-fold dilution, 9 concentration gradients), and make the DMSO content 0.20%. Incubate the cell plates at 37° C. and 5% CO2 for 3 days. Incubate with CyQuant reagent for 1 h, read the plate by Envision, and calculate IC50 using XLFIT.

[1] = target: T1, Human KIF18A (amino acid sequence 1-417) (Homo sapiens, UniProt Q8NI77); assay: Enzyme activity detection experiment (ADP-Glo, KIF18A with tubulin and ATP); assay type: biochemical; details: tubulin 60 μg/mL, ATP 25 μM, KIF18A protein 2.5 nM, 120 minutes at ambient temperature, ADP-Glo chemiluminescence
T1 construct: purchased Viva Biotech (Shanghai) Ltd
Outline: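 KIF18A (2.5 nM) was incubated with tubulin (60 μg/mL as added), ATP (25 μM) and serially diluted compound for 120 min at ambient temperature. ADP formed was detected by ADP-Glo: reagent for 30 min, then detection reagent for 30 min in the dark, with chemiluminescence read-out.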

OVCAR3 cells = assay: Cell proliferation activity test, OVCAR3 (CyQUANT Direct); assay type: cell-based; details: Homo sapiens, OVCAR-3, 72 h, 3 days incubation, CyQUANT fluorescence detection, read-out: OVCAR-3 Cell Viability_IC50_nM
Outline: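 OVCAR3 cells seeded overnight, then exposed to compounds at 0-10 μM final (0.20% DMSO) for 3 days at 37° C. Cell number read by CyQUANT Direct fluorescence after 60 min at 37° C.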

T1 sequence (Q8NI77 1-417): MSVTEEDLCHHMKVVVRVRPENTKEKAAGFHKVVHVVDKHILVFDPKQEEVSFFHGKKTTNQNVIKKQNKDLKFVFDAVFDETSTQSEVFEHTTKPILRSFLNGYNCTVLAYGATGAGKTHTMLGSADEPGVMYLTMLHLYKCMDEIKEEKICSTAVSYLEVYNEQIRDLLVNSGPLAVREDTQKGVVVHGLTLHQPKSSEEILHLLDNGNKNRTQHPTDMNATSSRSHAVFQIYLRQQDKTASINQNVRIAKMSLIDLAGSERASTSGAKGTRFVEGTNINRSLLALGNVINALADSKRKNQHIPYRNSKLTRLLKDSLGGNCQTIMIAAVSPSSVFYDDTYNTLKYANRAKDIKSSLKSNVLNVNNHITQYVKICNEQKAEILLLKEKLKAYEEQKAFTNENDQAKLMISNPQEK
T1 sequence (Q2XVP4 whole entry partner): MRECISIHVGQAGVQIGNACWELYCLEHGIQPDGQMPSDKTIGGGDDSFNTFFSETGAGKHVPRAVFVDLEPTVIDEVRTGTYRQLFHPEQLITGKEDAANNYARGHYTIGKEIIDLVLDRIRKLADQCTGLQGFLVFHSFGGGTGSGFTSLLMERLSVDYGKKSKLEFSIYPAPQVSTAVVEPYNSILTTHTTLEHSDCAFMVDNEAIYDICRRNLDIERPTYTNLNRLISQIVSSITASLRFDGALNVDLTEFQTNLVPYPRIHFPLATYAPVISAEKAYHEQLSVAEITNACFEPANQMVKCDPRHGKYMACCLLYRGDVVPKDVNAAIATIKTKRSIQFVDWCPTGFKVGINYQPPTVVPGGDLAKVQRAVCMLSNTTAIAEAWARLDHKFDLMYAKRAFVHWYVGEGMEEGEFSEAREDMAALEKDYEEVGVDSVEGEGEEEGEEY
T1 sequence (P02554 whole entry partner): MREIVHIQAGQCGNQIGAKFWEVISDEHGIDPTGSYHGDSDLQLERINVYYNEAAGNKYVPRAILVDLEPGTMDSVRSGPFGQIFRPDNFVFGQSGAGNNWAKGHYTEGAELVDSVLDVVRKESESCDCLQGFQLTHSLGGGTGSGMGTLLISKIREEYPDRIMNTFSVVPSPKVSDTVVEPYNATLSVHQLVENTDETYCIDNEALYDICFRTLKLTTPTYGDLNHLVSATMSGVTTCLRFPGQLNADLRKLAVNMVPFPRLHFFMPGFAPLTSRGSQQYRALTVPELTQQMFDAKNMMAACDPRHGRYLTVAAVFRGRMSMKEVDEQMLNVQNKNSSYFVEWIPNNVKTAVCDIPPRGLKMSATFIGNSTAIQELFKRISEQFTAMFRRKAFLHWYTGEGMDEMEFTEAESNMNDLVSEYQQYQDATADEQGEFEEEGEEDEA

| SMILES | IC50 (HT29 cells) [nM] | IC50 [1] [nM] | IC50 (OVCAR3 cells) [nM] |
| --- | --- | --- | --- |
| O=S(=O)(CCO)Nc1ccc(C=C(F)c2cc(N3CCC(F)(F)CC3)c3ncccc3c2)c(N2CCC3(CC2)CC3)c1 [Example 1, N-(4-(2-(8-(4,4-difluoropiperidin-1-yl)quinolin-6-yl)-2-fluorovinyl)-3-(6-azaspiro[2.5]octan-6-yl)phenyl)-2-hydroxyethane-1-sulfonamide] | 629 | > 3000 | 474 |
| Cc1cc(-c2nnc(-c3ccc(NS(=O)(=O)CCO)cc3N3CCC4(CC3)CC4)o2)cc(N2CCC(F)(F)CC2)n1 [Example 24, N-(4-(5-(2-(4,4-difluoropiperidin-1-yl)-6-methylpyridin-4-yl)-1,3,4-oxadiazol-2-yl)-3-(6-azaspiro[2.5]octan-6-yl)phenyl)-2-hydroxyethane-1-sulfonamide] | 20 | 51 | 16 |
| O=S(=O)(CCO)Nc1ccc(-n2cc(-c3ccc(-c4cccnc4)c(N4CCC(F)(F)CC4)n3)nn2)c(N2CCC3(CC2)CC3)c1 [Example 82, N-(3-{6-azaspiro[2.5]octan-6-yl}-4-{4-[2-(4,4-difluoropiperidin-1-yl)-[3,3′-bipyridyl]-6-yl]-1H-1,2,3-triazol-1-yl}phenyl)-2-hydroxyethane-1-sulfonamide] | 23 | 283 | 15 |
| Cc1cc(-c2cn(-c3cnc(NS(=O)(=O)CCO)cc3N3CCC4(CC3)CC4)nn2)cc(N2CCC(F)(F)CC2)n1 [Example 68, N-(4-{6-azaspiro[2.5]octan-6-yl}-5-{4-[2-(4,4-difluoropiperidin-1-yl)-6-methylpyridin-4-yl]-1H-1,2,3-triazol-1-yl}pyridin-2-yl)-2-hydroxyethane-1-sulfonamide] | 250 | 112 | 159 |
| Cc1cc(-c2nnc(-c3ccc(NS(=O)(=O)CCO)cc3N3CCC4(CC3)CC4)o2)nc(NC(C)(C)CO)n1 [Example 16, 2-hydroxy-N-(4-(5-(2-((1-hydroxy-2-methylpropan-2-yl)amino)-6-methylpyrimidin-4-yl)-1,3,4-oxadiazol-2-yl)-3-(6-azaspiro[2.5]octan-6-yl)phenyl)ethane-1-sulfon amide] | 1520 | 243 | 717 |
| O=S(=O)(CCO)Nc1ccc(-c2nnc(-c3cc4ccoc4c(N4CCC(F)(F)CC4)n3)o2)c(N2CCC3(CC2)CC3)c1 [Example 33] | 65 | 61 | 34 |
| O=S(=O)(CCO)Nc1ccc(/C(F)=C/c2cc(N3CCC(F)(F)CC3)c3ncccc3c2)c(N2CCC3(CC2)CC3)c1 [Example 2, (Z)-N-(4-(2-(8-(4,4-difluoropiperidin-1-yl)quinolin-6-yl)-1-fluorovinyl)-3-(6-azasppiro[2.5]octan-6-yl)phenyl)-2-hydroxyethane-1-sulfonamide] | 811 | > 3000 | 766 |
| COc1cc(-c2cn(-c3ccc(NS(=O)(=O)CCO)cc3N3CCC4(CC3)CC4)nn2)nc(N2[C@H](C)COC[C@@H]2C)n1 [Example 53, N-(4-(4-(2-((3S,5R)-3,5-dimethylmorpholino)-6-methoxypyrimidin-4-yl)-1H-1,2,3-triazol-1-yl)-3-(6-azaspiro[2.5]octan-6-yl)phenyl)-2-hydroxyethane-1-sulfonamide] | 47 | 296 | 35 |
| Cc1cc(-c2nnc(-c3ccc(NS(=O)(=O)CCO)cc3N3CCC4(CC3)CC4)s2)nc(N2CCC(F)(F)CC2)n1 [Example 14, N-(4-(5-(2-(4,4-difluoropiperidin-1-yl)-6-methylpyrimidin-4-yl)-1,3,4-thiadiazol-2-yl)-3-(6-azaspiro[2.5]oct-6-yl)phenyl)-2-hydroxyethane-1-sulfonamide] | 88 | 158 | 145 |

Continued, values first:

| IC50 (HT29 cells) [nM] | IC50 [1] [nM] | IC50 (OVCAR3 cells) [nM] | SMILES |
| --- | --- | --- | --- |
| 39 | 151 | 14 | Cc1cc(-c2cn(-c3ccc(NS(=O)(=O)CCO)cc3N3CCC4(CC3)CC4)nn2)nc(N2[C@H](C)COC[C@@H]2C)n1 [Example 46, N-(4-(4-(2-((3S,5R)-3,5-dimethylmorpholin)-6-methylpyrimidin-4-yl)-1H-1,2,3-triazol-1-yl)-3-(6-azaspiro[2.5]octan-6-yl)phenyl)2-hydroxyethanesulfonamide] |
| 27 | 177 | 27 | Cc1cc(-c2cn(-c3ccc(NS(=O)(=O)CCO)cc3N3CCC4(CC3)CC4)nn2)cc(N2CCC(F)(F)CC2)n1 [Example 64, N-(4-(4-(2-(4,4-difluoropiperidin-1-yl)-6-methylpyridin-4-yl)-1H-1,2,3-triazol-1-yl)-3-(6-azaspiro[2.5]octan-6-yl)phenyl)-2-hydroxyethane-1-sulfonamide] |
| 25 | 125 | 21 | Cc1cc(-c2cn(-c3ccc(NS(=O)(=O)[C@@H](C)CO)cc3N3CCC4(CC3)CC4)nn2)nc(N2CCC(F)(F)CC2)n1 [Example 84, (2S)—N-(3-{6-azaspiro[2.5]octan-6-yl}-4-{4-[2-(4,4-difluoropiperidin-1-yl)-6-methylpyrimidin-4-yl]-1H-1,2,3-triazol-1-yl}phenyl)-1-hydroxypropane-2-sulfonamide] |
| 21 | 42 | 23 | Cc1cc(-c2cn(-c3ccc(NS(=O)(=O)CCO)cc3N3CCC4(CC3)CC4)nn2)nc(C2=CCOCC2)n1 [Example 35, N-(4-(4-(2-(3,6-dihydro-2H-pyran-4-yl)-6-methylpyrimidin-4-yl)-1H-1,2,3-triazol-1-yl)-3-(6-azaspiro[2.5]octan-6-yl)phenyl)-2-hydroxyethane-1-sulfonamide] |
| 39 | 50 | 30 | Cc1cc(-c2cn(-c3ccc(NS(=O)(=O)CCO)cc3N3CCC4(CC3)CC4)nn2)nc(C2CCOCC2)n1 [Example 36, 2-hydroxy-N-(4-(4-(6-methyl-2-(tetrahydro-2H-pyran-4-yl)pyrimidin-4-yl)-1H-1,2,3-triazol-1-yl)-3-(6-azaspiro[2.5]octan-6-yl)phenyl)ethane-1-sulfonamide] |
| 15 | 56 | 12 | Cc1cc(-c2cn(-c3ccc(NS(=O)(=O)CCO)cc3N3CCC4(CC3)CC4)nn2)nc(N2CCC(F)(F)CC2)n1 [Example 34, N-(4-(4-(2-(4,4-difluoropiperidin-1-yl)-6-methylpyrimidin-4-yl)-1H-1,2,3-triazol-1-yl)-3-(6-azaspiro[2.5]octan-6-yl)phenyl)-2-hydroxyethanesulfonamide] |
| 12 | 22 | 14 | Cc1cc(-c2cn(-c3ccc(NS(=O)(=O)CCO)cc3N3CCC4(CC3)CC4)nn2)nc(N2C[C@@H](C)O[C@@H](C)C2)n1 [Example 44, N-(4-(4-(2-((2R,6S)-2,6-dimethylmorpholino)-6-methylpyrimidin-4-yl)-1H-1,2,3-triazol-1-yl)-3-(6-azaspiro[2.5]octan-6-yl)phenyl)-2-hydroxyethane-1-sulfonamide] |
| 14 | 44 | 15 | Cc1cc(-c2cn(-c3ccc(NS(=O)(=O)CCO)cc3N3CCC4(CC3)CC4)nn2)nc(N2CCCCC2)n1 [Example 41, 2-hydroxy-N-(4-(4-(6-methyl-2-(piperidin-1-yl)pyrimidin-4-yl)-1H-1,2,3-triazol-1-yl)-3-(6-azaspiro[2.5]octan-6-yl)phenyl)ethanesulfonamide] |
| 7 | 24 | 11 | Nc1ncc(-c2cn(-c3ccc(NS(=O)(=O)CCO)cc3N3CCC4(CC3)CC4)nn2)nc1N1CCC(F)(F)CC1 [Example 79, N-(4-{4-[5-amino-6-(4,4-difluoropiperidin-1-yl)pyrazin-2-yl]-1H-1,2,3-triazol-1-yl}-3-{6-azaspiro[2.5]octan-6-yl}phenyl)-2-hydroxyethane-1-sulfonamide] |
| 245 | 1050 | 222 | Cc1cc(-c2cn(-c3ccc(NS(=O)(=O)CCO)cc3N3CCC4(CC3)CC4)nn2)nc(N2[C@H](C)CC(F)(F)C[C@@H]2C)n1 [Example 50, N-(4-(4-(2-((2S,6R)-4,4-difluoro-2,6-dimethylpiperidin-1-yl)-6-methylpyrimidin-4-yl)-1H-1,2,3-triazol-1-yl)-3-(6-azaspiro[2.5]octan-6-yl)phenyl)-2-hydroxyethane-1-sulfonamide] |
| 13 | 88 | 22 | Cc1cc(-c2cn(-c3ccc(NS(=O)(=O)CCO)cc3N3CCC4(CC3)CC4)nn2)nc(N2CCOCC2C)n1 (stereo not drawn) [Example 45] |
